We go through 4 compounds from US7541018B2, “Treatment process using somatostatin analogues” (University of Bern, priority 2001, dated 2009).

Bridge positions count the residues as written; N and C are the ends. Square brackets hold non-standard residues; d marks the D form. Peptide text beside a SMILES is read from it. * marks the point of attachment. DOTA = O=C(O)CN1CCN(CC(=O)O)CCN(CC(=O)*)CCN(CC(=O)O)CC1; dDab = NCC[C@@H](N)C(=O)O; GABA = NCCCC(=O)O

Holding throughout (assay): Receptor autoradiography displacement of 125I-[Leu8,D-Trp22,Tyr25]-somatostatin 28 on membrane pellet sections
Assay type in all cases: binding
For orientation: In a radioligand displacement assay an active substance lowers the binding of a labelled ligand.

Assay [1] deals with T1, human sst1 (Homo sapiens, UniProt P30872).
T1 construct: expressed in transfected cells; host or cells: CHO-K1
T1 sequence (P30872 whole entry): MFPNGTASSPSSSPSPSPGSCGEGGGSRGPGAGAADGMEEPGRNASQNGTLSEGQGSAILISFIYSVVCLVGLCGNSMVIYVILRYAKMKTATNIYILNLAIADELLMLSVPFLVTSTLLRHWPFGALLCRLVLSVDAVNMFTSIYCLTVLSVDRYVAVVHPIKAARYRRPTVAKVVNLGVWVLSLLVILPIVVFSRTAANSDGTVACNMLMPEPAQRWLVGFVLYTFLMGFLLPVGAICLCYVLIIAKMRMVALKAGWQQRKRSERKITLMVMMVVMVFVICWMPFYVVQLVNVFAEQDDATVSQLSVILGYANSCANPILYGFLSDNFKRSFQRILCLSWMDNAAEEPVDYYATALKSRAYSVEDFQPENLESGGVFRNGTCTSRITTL
The settings on record: CHO-K1 cells stably expressing human sst1; sectioned membrane pellets; read-out: IC50 hsst1. Here is the method:
(§1) Cell culture CHO-K1 cells stably expressing human sst1 and sst5 were kindly provided by Drs. T. Reisine and G. Singh (University of Pennsylvania, Philadelphia, Pa.) and CCL39 cells stably expressing human sst2, sst3, and sst4 by Dr. D. Hoyer (Novartis Pharma, Basel, Switzerland).
(§2) CHO-K1 cells were grown in Ham's F-12 medium and CCL39 cells in Dulbecco's modified Eagle's medium/Ham's F-12 (1:1) mix, supplemented with 10% fetal bovine serum, 100 μg/mL penicillin and 100 μg/mL streptomycin, in humidified air containing 5% CO2 at 37° C. Geneticin (G418-sulfate; Gibco, USA) was used where necessary to maintain selection pressure at a final concentration of 400 μg/mL for sst2 to sst4—and 285 μg/mL for sst5—expressing cells as described previously (Rens-Domiano S. & Reisine T., Biochemical and functional properties of somatostatin receptors, J. Neurochem., 58:1987-1996 (1992); O'Caroll A. et al., Characterization of cloned human somatostatin receptor SSTR5, Molec. Pharmacol., 46:291-298 (1994); Siehler S. et al., [^125I]Tyr^10-cortistatin14 labels all five somatostatin receptors, Naunyn-Schmiedeberg's Arch. Pharmacol., 357:483-489 (1998).).
(§3) Cells were washed twice with and scraped into ice-cold 0.05 M Tris-CHl (pH 7.4), collected by centrifugation, and homogenized using a rotor/stator slash system (POLYTRON®, Kinematica Inc., Littau, Switzerland) in the same buffer. After centrifugation at 120 g for 5 min at 4° C., the supernatant was collected and centrifuged again at 48,000 g for 30 min at 4° C. The resulting pellet was re-suspended in ice-cold Tris buffer, transferred into a microfuge tube, and centrifuged at 20,000 g for 15 min at 4° C. After withdrawal of the supernatant, the membrane pellet was stored at −80° C.
(§4) Receptor autoradiography was performed on 20 μm thick cryostat (Leitz 1720, Rockleigh, N.J.) sections of the membrane pellets, mounted on microscope slides, and then stored at −20° C.
(§5) IC50 values were calculated after quantification of the data using a computer-assisted image processing system as described previously (Reubi, J. C. et al., Detection of somatostatin receptors in surgical and percutaneous needle biopsy samples of carcinoids and islet cell carcinomas, Cancer Res. 50: 5969-5977 (1990).). Tissue standards (Autoradiographic [^125I] microscales, Amersham) that contain known amounts of isotope, cross-calibrated to tissue-equivalent ligand concentrations were used for quantification (Reubi, J. C., In vitro identification of vasoactive intestinal peptide receptors in human tumors: Implications for tumor imaging, J. Nucl. Med. 36: 1846-1853 (1995).).

The target in assay [2] is T2, human sst3 (Homo sapiens, UniProt P32745).
T2 construct: expressed in transfected cells; host or cells: CCL39
T2 sequence (P32745 whole entry): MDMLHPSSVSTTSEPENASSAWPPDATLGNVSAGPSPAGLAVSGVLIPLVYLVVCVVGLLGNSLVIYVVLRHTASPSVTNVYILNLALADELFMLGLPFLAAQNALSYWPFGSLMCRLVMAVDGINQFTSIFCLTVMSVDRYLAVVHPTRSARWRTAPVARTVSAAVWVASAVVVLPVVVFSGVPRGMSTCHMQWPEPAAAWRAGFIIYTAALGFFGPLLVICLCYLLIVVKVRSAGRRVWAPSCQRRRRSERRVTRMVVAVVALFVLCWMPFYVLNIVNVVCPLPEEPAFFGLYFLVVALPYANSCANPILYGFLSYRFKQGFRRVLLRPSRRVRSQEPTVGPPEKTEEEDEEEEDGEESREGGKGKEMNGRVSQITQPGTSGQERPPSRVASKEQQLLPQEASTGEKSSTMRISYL
The settings on record: CCL39 cells stably expressing human sst3; sectioned membrane pellets; read-out: IC50 hsst3. Here is the method: as §1, §2, §3, §4, §5

Assay [3] addresses T3, human sst4 (Homo sapiens, UniProt P31391).
T3 construct: expressed in transfected cells; host or cells: CCL39
The conditions noted are these: CCL39 cells stably expressing human sst4; sectioned membrane pellets; read-out: IC50 hsst4. Here is the method:
as §1, §2, §3, §4, §5

The target of assay [4] is T4, human sst5 (Homo sapiens, UniProt P35346).
T4 construct: expressed in transfected cells; host or cells: CHO-K1
T4 sequence (P35346 whole entry): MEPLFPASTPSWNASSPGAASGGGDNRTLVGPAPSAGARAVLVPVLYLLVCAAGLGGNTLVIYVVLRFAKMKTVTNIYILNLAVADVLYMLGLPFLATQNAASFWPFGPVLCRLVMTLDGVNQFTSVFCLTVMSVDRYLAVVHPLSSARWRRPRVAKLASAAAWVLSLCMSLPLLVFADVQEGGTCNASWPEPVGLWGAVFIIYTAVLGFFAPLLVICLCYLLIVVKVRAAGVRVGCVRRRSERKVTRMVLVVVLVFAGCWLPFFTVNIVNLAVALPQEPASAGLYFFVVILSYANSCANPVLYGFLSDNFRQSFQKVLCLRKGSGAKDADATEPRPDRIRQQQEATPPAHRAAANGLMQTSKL
The settings on record: CHO-K1 cells stably expressing human sst5; sectioned membrane pellets; read-out: IC50 hsst5. Here is the method:
as §1, §2, §3, §4, §5

In assay [5] the target is T5, human sst2 (Homo sapiens, UniProt P30874).
T5 construct: expressed in transfected cells; host or cells: CCL39
T5 sequence (P30874 whole entry): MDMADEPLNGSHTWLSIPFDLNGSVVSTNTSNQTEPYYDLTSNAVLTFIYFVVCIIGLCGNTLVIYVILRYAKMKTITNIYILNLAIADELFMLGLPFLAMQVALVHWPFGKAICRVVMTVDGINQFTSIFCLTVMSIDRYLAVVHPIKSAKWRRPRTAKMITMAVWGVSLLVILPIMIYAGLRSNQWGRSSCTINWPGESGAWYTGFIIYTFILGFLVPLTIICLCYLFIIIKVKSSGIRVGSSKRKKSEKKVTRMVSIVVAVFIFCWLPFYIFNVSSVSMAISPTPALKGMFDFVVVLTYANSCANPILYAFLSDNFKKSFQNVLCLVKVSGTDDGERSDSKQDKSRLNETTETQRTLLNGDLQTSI
The settings on record: CCL39 cells stably expressing human sst2; sectioned membrane pellets; read-out: IC50 hsst2. Here is the method: as §1, §2, §3, §4, §5

T3 sequence (P31391 whole entry): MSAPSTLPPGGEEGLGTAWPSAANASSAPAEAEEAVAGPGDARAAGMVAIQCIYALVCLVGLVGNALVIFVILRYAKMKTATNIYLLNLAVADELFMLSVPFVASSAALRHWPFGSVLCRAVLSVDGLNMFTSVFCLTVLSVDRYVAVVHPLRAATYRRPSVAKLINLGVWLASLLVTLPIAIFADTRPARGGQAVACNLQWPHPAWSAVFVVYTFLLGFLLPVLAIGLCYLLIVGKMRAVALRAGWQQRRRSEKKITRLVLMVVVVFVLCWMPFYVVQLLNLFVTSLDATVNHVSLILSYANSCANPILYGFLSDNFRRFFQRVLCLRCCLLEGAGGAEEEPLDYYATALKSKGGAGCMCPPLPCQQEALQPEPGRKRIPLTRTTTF

In general, IC50 refers to the concentration at which inhibition is half-maximal. Take `C[C@@H](O)[C@@H]1NC(=O)[C@H](CCCCN)NC(=O)[C@@H](Cc2c[nH]c3ccccc23)NC(=O)[C@H](Cc2ccc(O)cc2)NC(=O)[C@H](Cc2ccccc2)NC(=O)[C@H](CCCNC(=N)N)NC(=O)CCCNC(=O)[C@H](Cc2ccccc2)NC1=O` [A with X4 is Tyr and X1 is GABA] (cyclo(F[GABA]RFY[dW]KT); ring closure inferred): the IC50 in assay [1] turned out to be 10.5 nM; in assay [2] it was 1.7 nM; in assay [3] it was 0.68 nM; in assay [4], 0.57 nM.

Take `C[C@@H](O)[C@@H]1NC(=O)[C@H](CCCCN)NC(=O)[C@@H](Cc2c[nH]c3ccccc23)NC(=O)[C@H](Cc2ccc(O)cc2)NC(=O)[C@H](Cc2ccccc2)NC(=O)[C@H](CCCNC(=N)N)NC(=O)[C@H](N)CCNC(=O)[C@H](Cc2ccccc2)NC1=O` [A with X4 is Tyr] (H-[dDab]RFY[dW]KTF; lactam 1-C): the IC50 in assay [1] stood at 24.5 nM; in assay [5], 2.9 nM; in assay [2], 2 nM; in assay [3], 1 nM; in assay [4], 0.8 nM.

Take `C[C@@H](O)[C@@H]1NC(=O)[C@H](CCCCN)NC(=O)[C@@H](Cc2c[nH]c3ccccc23)NC(=O)[C@H](Cc2ccccc2)NC(=O)[C@H](Cc2ccccc2)NC(=O)[C@H](CCCNC(=N)N)NC(=O)[C@H](NC(=O)CN2CCN(CC(=O)O)CCN(CC(=O)O)CCN(CC(=O)O)CC2)CCNC(=O)[C@H](Cc2ccccc2)NC1=O` [A, Z = DOTA] ({DOTA}-[dDab]RFF[dW]KTF; lactam 1-C): the IC50 in assay [1] was determined as 7.6 nM; in assay [5], 3 nM; in assay [2], 1.6 nM; in assay [3] it was 0.9 nM; in assay [4], 0.8 nM.

As to `C[C@@H](O)[C@@H]1NC(=O)[C@H](CCCCN)NC(=O)[C@@H](Cc2c[nH]c3ccccc23)NC(=O)[C@H](Cc2ccccc2)NC(=O)[C@H](Cc2ccccc2)NC(=O)[C@H](CC(N)=O)NC(=O)CCCNC(=O)[C@H](Cc2ccccc2)NC1=O` [minisomatostatin, reference compound] (cyclo(FF[dW]KTF[GABA]N)), the IC50 stood at 172 nM in assay [1], 3.2 nM in assay [2], 15.3 nM in assay [3] and 6.8 nM in assay [4].
